Assay results as given in PubChem BioAssay (NCI).
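In this assay, cells in 96-well plates receive the compound at five concentrations for 48 hours. Endpoints are linearly interpolated between the surrounding concentrations. GI50: concentration for 50% inhibition of growth. TGI is the concentration that stops growth completely.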

What was measured:
Test in all cases: growth of human tumour cells (NCI), 48 h
786-0 renal = tested on: 786-0 renal
A498 renal = tested on: A498 renal
A549 NSCLC = tested on: A549 NSCLC
ACHN renal = tested on: ACHN renal
BT-549 breast = tested on: BT-549 breast
CAKI-1 renal = tested on: CAKI-1 renal
CCRF-CEM leukemia = tested on: CCRF-CEM leukemia
COLO 205 colon = tested on: COLO 205 colon
DU-145 prostate = tested on: DU-145 prostate
EKVX NSCLC = tested on: EKVX NSCLC
HCC-2998 colon = tested on: HCC-2998 colon
HCT-116 colon = tested on: HCT-116 colon
HCT-15 colon = tested on: HCT-15 colon
HL-60(TB) leukemia = tested on: HL-60(TB) leukemia
HOP-62 NSCLC = tested on: HOP-62 NSCLC
HOP-92 NSCLC = tested on: HOP-92 NSCLC
HS 578T breast = tested on: HS 578T breast
HT29 colon = tested on: HT29 colon
IGROV1 ovarian = tested on: IGROV1 ovarian
K-562 leukemia = tested on: K-562 leukemia
KM12 colon = tested on: KM12 colon
LOX IMVI melanoma = tested on: LOX IMVI melanoma
M14 melanoma = tested on: M14 melanoma
MALME-3M melanoma = tested on: MALME-3M melanoma
MCF7 breast = tested on: MCF7 breast
MDA-MB-231 breast = tested on: MDA-MB-231 breast
MDA-MB-435 = tested on: MDA-MB-435
MOLT-4 leukemia = tested on: MOLT-4 leukemia
NCI-H226 lung = tested on: NCI-H226 lung

CN1CCN(Cc2ccc(NC(=O)c3cncc(C#Cc4cnc5[nH]ncc5c4)c3)cc2C(F)(F)F)CC1
GI50 (786-0 renal): 3.55 µM
TGI (786-0 renal): 27 µM
GI50 (A498 renal): 1.96 µM
TGI (A498 renal): 15 µM
GI50 (A549 NSCLC): 4.31 µM
TGI (A549 NSCLC): 39.5 µM
GI50 (ACHN renal): 0.888 µM
TGI (ACHN renal): 10.8 µM
GI50 (BT-549 breast): 3.81 µM
TGI (BT-549 breast): 16.7 µM
GI50 (CAKI-1 renal): 0.52 µM
TGI (CAKI-1 renal): 10.9 µM
GI50 (CCRF-CEM leukemia): 3.64 µM
TGI (CCRF-CEM leukemia): 66.6 µM
GI50 (COLO 205 colon): 1.87 µM
TGI (COLO 205 colon): 13.2 µM
GI50 (DU-145 prostate): 1.54 µM
TGI (DU-145 prostate): 16.4 µM
GI50 (EKVX NSCLC): 2.72 µM
TGI (EKVX NSCLC): 18 µM
GI50 (HCC-2998 colon): 4.51 µM
TGI (HCC-2998 colon): 18.6 µM
GI50 (HCT-116 colon): 0.737 µM
TGI (HCT-116 colon): 12.8 µM
GI50 (HCT-15 colon): 2.97 µM
TGI (HCT-15 colon): 13.6 µM
GI50 (HL-60(TB) leukemia): 0.695 µM
TGI (HL-60(TB) leukemia): 13.2 µM
GI50 (HOP-62 NSCLC): 4.06 µM
TGI (HOP-62 NSCLC): 16.6 µM
GI50 (HOP-92 NSCLC): 1.32 µM
TGI (HOP-92 NSCLC): 6.02 µM
GI50 (HS 578T breast): 1.27 µM
TGI (HS 578T breast): 13.9 µM
GI50 (HT29 colon): 1.23 µM
TGI (HT29 colon): 13.7 µM
GI50 (IGROV1 ovarian): 0.685 µM
TGI (IGROV1 ovarian): 13.1 µM
TGI (K-562 leukemia): > 100 µM
GI50 (KM12 colon): 0.107 µM
TGI (KM12 colon): 12.1 µM
GI50 (LOX IMVI melanoma): 0.618 µM
TGI (LOX IMVI melanoma): 2.38 µM
GI50 (M14 melanoma): 0.524 µM
TGI (M14 melanoma): 6.6 µM
GI50 (MALME-3M melanoma): 0.422 µM
TGI (MALME-3M melanoma): 2.81 µM
GI50 (MCF7 breast): 3.9 µM
TGI (MCF7 breast): 18.5 µM
GI50 (MDA-MB-231 breast): 1.11 µM
TGI (MDA-MB-231 breast): 6.55 µM
GI50 (MDA-MB-435): 1.22 µM
TGI (MDA-MB-435): 14.5 µM
GI50 (MOLT-4 leukemia): 1.81 µM
TGI (MOLT-4 leukemia): 22.4 µM
GI50 (NCI-H226 lung): 0.704 µM
TGI (NCI-H226 lung): 9.53 µM
